Test results reported in patent publication US20240132431A1, “METHOD FOR ALKYLATING ACIDIC FUNCTIONAL GROUP” (Chugai Seiyaku Kabushiki Kaisha, priority 2021, published 2024).

Target: T1, Bcl-2 protein (Recombinant Human Bcl-2 Protein) (Homo sapiens, UniProt P10415)
T1 construct: purchased Novus NBP2-34889
Experiment: Binding evaluation of mixture library compounds to Bcl-2 using AS-MS (affinity selection mass spectrometry)
Conditions: AS-MS, mixture library, Bcl-2, ASMS Ratio(%)=(A−C)/B×100; for ASMS ratio (%) n = 1: replicate n = 1; for ASMS ratio (%) n = 2: replicate n = 2
How it was run: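 Bcl-2 binding is scored from LC/MS signal retained with protein through gel-filtration spin columns, normalised to unfiltered and protein-free controls. Incubation: 20 μM protein, […] per compound, 1 h, 23° C.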

T1 sequence (P10415 whole entry): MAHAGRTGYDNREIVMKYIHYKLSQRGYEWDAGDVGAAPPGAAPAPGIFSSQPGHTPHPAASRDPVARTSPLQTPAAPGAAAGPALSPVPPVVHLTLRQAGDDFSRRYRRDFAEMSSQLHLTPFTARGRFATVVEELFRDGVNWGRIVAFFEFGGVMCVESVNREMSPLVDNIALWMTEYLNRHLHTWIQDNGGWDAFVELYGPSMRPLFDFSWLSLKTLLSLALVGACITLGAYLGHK

| Structure (SMILES) | ASMS ratio (%) n = 1 [%] | ASMS ratio (%) n = 2 [%] |
| --- | --- | --- |
| CCOc1cccc(-c2cc(CN3CCN(c4ccc(C(=O)NS(=O)(=O)CC56CC7CC(CC(C7)C5)C6)nn4)CC3)cc(OC(C)C)c2)c1 [B2A083-01, N-(1-Adamantylmethylsulfonyl)-6-[4-[[3-(3-ethoxyphenyl)-5-propan-2-yloxyphenyl]methyl]piperazin-1-yl]pyridazine-3-carboxamide] | 10.3 | 0.0 |
| CCOc1cncc(-c2cc(CN3CCN(c4ccc(C(=O)NS(=O)(=O)CC56CC7CC(CC(C7)C5)C6)nn4)CC3)cc(OC(C)C)c2)c1 [B2A084-01, N-(1-Adamantylmethylsulfonyl)-6-[4-[[3-(5-ethoxypyridin-3-yl)-5-propan-2-yloxyphenyl]methyl]piperazin-1-yl]pyridazine-3-carboxamide] | 13.3 | 11.9 |
| CCOc1cccc(-c2cc(OC)c(CN3CCN(c4ccc(C(=O)NS(=O)(=O)CC56CC7CC(CC(C7)C5)C6)nn4)CC3)c(OC)c2)c1 [B2A085-01, N-(1-Adamantylmethylsulfonyl)-6-[4-[[4-(3-ethoxyphenyl)-2,6-dimethoxyphenyl]methyl]piperazin-1-yl]pyridazine-3-carboxamide] | 0.0 | 0.0 |
| CCOc1cccc(-c2cc(CN3CCN(c4ccc(C(=O)NS(=O)(=O)CC56CC7CC(CC(C7)C5)C6)nn4)CC3)cc(C(F)(F)F)c2)c1 [B2A087-01, N-(1-Adamantylmethylsulfonyl)-6-[4-[[3-(3-ethoxyphenyl)-5-(trifluoromethyl)phenyl]methyl]piperazin-1-yl]pyridazine-3-carboxamide] | 7.2 | 12.7 |
| CCOc1cncc(-c2cc(CN3CCN(c4ccc(C(=O)NS(=O)(=O)CC56CC7CC(CC(C7)C5)C6)nn4)CC3)cc(C(F)(F)F)c2)c1 [B2A088-01, N-(1-Adamantylmethylsulfonyl)-6-[4-[[3-(5-ethoxypyridin-3-yl)-5-(trifluoromethyl)phenyl]methyl]piperazin-1-yl]pyridazine-3-carboxamide] | 12.0 | 14.0 |
| CCOc1cncc(-c2cc(CN3CCN(c4ccc(C(=O)NS(=O)(=O)CC56CC7CC(CC(C7)C5)C6)nn4)CC3)cc(OC(F)(F)F)c2)c1 [B2A090-01, N-(1-Adamantylmethylsulfonyl)-6-[4-[[3-(5-ethoxypyridin-3-yl)-5-(trifluoromethoxy)phenyl]methyl]piperazin-1-yl]pyridazine-3-carboxamide] | 22.0 | 4.7 |
| CCOc1cccc(-c2ccc(CN3CCN(c4ccc(C(=O)NS(=O)(=O)CC56CC7CC(CC(C7)C5)C6)nn4)CC3)c3ccccc23)c1 [B2A091-01, N-(1-Adamantylmethylsulfonyl)-6-[4-[[4-(3-ethoxyphenyl)naphthalen-1-yl]methyl]piperazin-1-yl]pyridazine-3-carboxamide] | −2.6 | 3.8 |
| CCOc1cccc(-c2csc(CN3CCN(c4ccc(C(=O)NS(=O)(=O)CC56CC7CC(CC(C7)C5)C6)nn4)CC3)c2)c1 [B2A093-01, N-(1-Adamantylmethylsulfonyl)-6-[4-[[4-(3-ethoxyphenyl)thiophen-2-yl]methyl]piperazin-1-yl]pyridazine-3-carboxamide] | 13.0 | 0.0 |
| CCOc1cccc(C#Cc2ccccc2CN2CCN(c3ccc(C(=O)NS(=O)(=O)CC45CC6CC(CC(C6)C4)C5)nn3)CC2)c1 [B2A095-01, N-(1-Adamantylmethylsulfonyl)-6-[4-[[2-[2-(3-ethoxyphenyl)ethynyl]phenyl]methyl]piperazin-1-yl]pyridazine-3-carboxamide] | 1.6 | 13.8 |
| CCOc1cccc(-c2ccc(C(C)N3CCN(c4ccc(C(=O)NS(=O)(=O)CC56CC7CC(CC(C7)C5)C6)cc4)CC3)c(F)c2)c1 (stereo not shown) [B2A099-01, N-(1-Adamantylmethylsulfonyl)-4-[4-[1-[4-(3-ethoxyphenyl)-2-fluorophenyl]ethyl]piperazin-1-yl]benzamide] | 0.0 | 0.0 |
| CCOc1cccc(-c2csc(C(=O)N3CCN(c4ccc(C(=O)NS(C)(=O)=O)nn4)CC3)c2)c1 [B2I001-01, 6-[4-[4-(3-Ethoxyphenyl)thiophene-2-carbonyl]piperazin-1-yl]-N-methylsulfonylpyridazine-3-carboxamide] | 0.0 |  |
| CCOc1cncc(-c2csc(C(=O)N3CCN(c4ccc(C(=O)NS(C)(=O)=O)nn4)CC3)c2)c1 [B2I002-01, 6-[4-[4-(5-Ethoxypyridin-3-yl)thiophene-2-carbonyl]piperazin-1-yl]-N-methylsulfonylpyridazine-3-carboxamide] | 0.0 | 0.0 |
| CCOc1cncc(-c2ccc(C(=O)N3CCN(c4ccc(C(=O)NS(C)(=O)=O)nn4)CC3)cc2C)c1 [B2I004-01, 6-[4-[4-(5-Ethoxypyridin-3-yl)-3-methylbenzoyl]piperazin-1-yl]-N-methylsulfonylpyridazine-3-carboxamide] | 0.9 | −0.3 |
| CCOc1cccc(-c2ccc(C(=O)N3CCN(c4ccc(C(=O)NS(C)(=O)=O)nn4)CC3)cc2F)c1 [B2I005-01, 6-[4-[4-(3-Ethoxyphenyl)-3-fluorobenzoyl]piperazin-1-yl]-N-methylsulfonylpyridazine-3-carboxamide] | 0.0 | 0.0 |
| CCOc1cccc(C#Cc2ccccc2C(=O)N2CCN(c3ccc(C(=O)NS(C)(=O)=O)nn3)CC2)c1 [B2I007-01, 6-[4-[2-[2-(3-Ethoxyphenyl)ethynyl]benzoyl]piperazin-1-yl]-N-methylsulfonylpyridazine-3-carboxamide] | −1.6 | −1.6 |

Now from value to compound:

| ASMS ratio (%) n = 1 [%] | ASMS ratio (%) n = 2 [%] | Structure (SMILES) |
| --- | --- | --- |
| 18.6 | 16.7 | CCOc1cccc(-c2cc(CN3CCN(c4ccc(C(=O)NS(=O)(=O)CC56CC7CC(CC(C7)C5)C6)nn4)CC3)cc(OCC)c2)c1 [B2A081-01, N-(1-Adamantylmethylsulfonyl)-6-[4-[[3-ethoxy-5-(3-ethoxyphenyl)phenyl]methyl]piperazin-1-yl]pyridazine-3-carboxamide] |
| 0.0 | 0.0 | CCOc1cncc(-c2cc(OC)c(CN3CCN(c4ccc(C(=O)NS(=O)(=O)CC56CC7CC(CC(C7)C5)C6)nn4)CC3)c(OC)c2)c1 [B2A086-01, N-(1-Adamantylmethylsulfonyl)-6-[4-[[4-(5-ethoxypyridin-3-yl)-2,6-dimethoxyphenyl]methyl]piperazin-1-yl]pyridazine-3-carboxamide] |
| 20.8 | 16.6 | CCOc1cncc(-c2ccc(CN3CCN(c4ccc(C(=O)NS(=O)(=O)CC56CC7CC(CC(C7)C5)C6)nn4)CC3)c3ccccc23)c1 [B2A092-01, N-(1-Adamantylmethylsulfonyl)-6-[4-[[4-(5-ethoxypyridin-3-yl)naphthalen-1-yl]methyl]piperazin-1-yl]pyridazine-3-carboxamide] |
| 0.0 | 0.0 | CCOc1cncc(-c2csc(CN3CCN(c4ccc(C(=O)NS(=O)(=O)CC56CC7CC(CC(C7)C5)C6)nn4)CC3)c2)c1 [B2A094-01, N-(1-Adamantylmethylsulfonyl)-6-[4-[[4-(5-ethoxypyridin-3-yl)thiophen-2-yl]methyl]piperazin-1-yl]pyridazine-3-carboxamide] |
| 9.7 | 0.4 | CCOc1cccc(-c2ccc(C(C)N3CCN(c4ccc(C(=O)NS(=O)(=O)CC56CC7CC(CC(C7)C5)C6)cc4)CC3)cc2)c1 (stereo not shown) [B2A097-01, N-(1-Adamantylmethylsulfonyl)-4-[4-[1-[4-(3-ethoxyphenyl)phenyl]ethyl]piperazin-1-yl]benzamide] |
| 18.2 | 2.1 | CCOc1cncc(-c2ccc(C(C)N3CCN(c4ccc(C(=O)NS(=O)(=O)CC56CC7CC(CC(C7)C5)C6)cc4)CC3)cc2)c1 (stereo not shown) [B2A098-01, N-(1-Adamantylmethylsulfonyl)-4-[4-[1-[4-(5-ethoxypyridin-3-yl)phenyl]ethyl]piperazin-1-yl]benzamide] |
| 0.0 | 0.0 | CCOc1cncc(-c2ccc(C(C)N3CCN(c4ccc(C(=O)NS(=O)(=O)CC56CC7CC(CC(C7)C5)C6)cc4)CC3)c(F)c2)c1 (stereo not shown) [B2A100-01, N-(1-Adamantylmethylsulfonyl)-4-[4-[1-[4-(5-ethoxypyridin-3-yl)-2-fluorophenyl]ethyl]piperazin-1-yl]benzamide] |
| 0.0 | 0.0 | CCOc1cccc(-c2ccc(C(=O)N3CCN(c4ccc(C(=O)NS(C)(=O)=O)nn4)CC3)cc2C)c1 [B2I003-01, 6-[4-[4-(3-Ethoxyphenyl)-3-methylbenzoyl]piperazin-1-yl]-N-methylsulfonylpyridazine-3-carboxamide] |
| 0.0 | 0.0 | CCOc1cncc(-c2ccc(C(=O)N3CCN(c4ccc(C(=O)NS(C)(=O)=O)nn4)CC3)cc2F)c1 [B2I006-01, 6-[4-[4-(5-Ethoxypyridin-3-yl)-3-fluorobenzoyl]piperazin-1-yl]-N-methylsulfonylpyridazine-3-carboxamide] |
| 0.0 | 0.0 | CCOc1cncc(C#Cc2ccccc2C(=O)N2CCN(c3ccc(C(=O)NS(C)(=O)=O)nn3)CC2)c1 [B2I008-01, 6-[4-[2-[2-(5-Ethoxypyridin-3-yl)ethynyl]benzoyl]piperazin-1-yl]-N-methylsulfonylpyridazine-3-carboxamide] |
